# In patent US8604021B2, “Substituted arylamine compounds and methods of treatment” (priority 2005, dated 2013):
# “Also recorded” adds a separate entry of the source.
# Experiments:
# [1] = Novel object recognition test; format: in vivo, C57Bl/6J mice; details: for Memory index, Mean: 10 min test; for Exploration time, Diff of Means 10% DMSO vs. treatment: within Familiar; for Exploration time, Diff of Means treatment vs. 10% DMSO: within Novel
# Description: Male C57Bl/6J mice from Jackson Laboratories (Bar Harbor, Me.) were used. Mice were received at 6-weeks of age. Upon receipt, mice were assigned unique identification numbers (tail marked) and were group housed in polycarbonate cages with filter tops. All animals remained housed in groups of four during the remainder of the study. All mice were acclimated to the colony room for at least two weeks prior to testing and were subsequently tested at an average age of 8 weeks of age. During the period of acclimation, mice were examined on a regular basis, handled, and weighed to assure adequate health and suitability. Mice were maintained on a 12/12 light/dark cycle with the light on at 6:00 a.m. The room temperature was maintained between 20 and 23° C. with a relative humidity maintained between 30% and 70%. Chow and water were provided ad libitum for the duration of the study. In each test, animals were randomly assigned across treatment groups.
# The pH at the 10 mg/kg was around 5.5.
# Rolipram, also dissolved in 10% DMSO was only administered 20 min prior to training on Day 2.
# On Day 1, mice were habituated to a circular open field environment (d=18 in, h=15 cm) for one hour in cage groups of four. Each Arena was constructed out of acrylic that was painted black to block reflection. On day 2, mice were placed back into the same arena for a training trial and allowed to explore a set of two identical objects placed equidistance apart from both each other and the arena walls. Individual mice were trained for a total of 15 minutes and then placed back into their home cages. On Day 3, mice were placed back into the same arena in the presence of both the familiar (previously explored) and a novel object. The spatial positions of the familiar and novel object (i.e. left-right sides) were counterbalanced between subjects. The difference in time spent exploring each object during the test trial was used as an index of object recognition and memory retention. Each animals test trial was recorded and these tapes were observed and scored after test completion. The first 10 min of each session was scored and object recognition was computed using the formula: (Time spent with novel object*100)/(Total Time exploring both objects). Tissue Harvest
# Data were analyzed by analysis of variance (ANOVA) followed by post-hoc comparisons with Fisher Tests when appropriate. An effect was considered significant if p<0.05. Data are represented as the mean and standard error to the mean.
# [2] = Oral pharmacokinetics in dogs; details: dog, in vivo, oral administration 5 mg/kg
# [3] = biological target: α1; assay: Compound Binding Profiles: α1; details: * = Estimated IC50
# [4] = biological target: CYP2D6 (Homo sapiens, UniProt P10635); assay: CYP inhibition CYP2D6
# [5] = biological target: α2; assay: Compound Binding Profiles: α2; details: * = Estimated IC50
# [6] = biological target: T1, CYP1A2 (Homo sapiens, UniProt P05177); assay: CYP inhibition CYP1A2
# T1 sequence (P05177 1-516): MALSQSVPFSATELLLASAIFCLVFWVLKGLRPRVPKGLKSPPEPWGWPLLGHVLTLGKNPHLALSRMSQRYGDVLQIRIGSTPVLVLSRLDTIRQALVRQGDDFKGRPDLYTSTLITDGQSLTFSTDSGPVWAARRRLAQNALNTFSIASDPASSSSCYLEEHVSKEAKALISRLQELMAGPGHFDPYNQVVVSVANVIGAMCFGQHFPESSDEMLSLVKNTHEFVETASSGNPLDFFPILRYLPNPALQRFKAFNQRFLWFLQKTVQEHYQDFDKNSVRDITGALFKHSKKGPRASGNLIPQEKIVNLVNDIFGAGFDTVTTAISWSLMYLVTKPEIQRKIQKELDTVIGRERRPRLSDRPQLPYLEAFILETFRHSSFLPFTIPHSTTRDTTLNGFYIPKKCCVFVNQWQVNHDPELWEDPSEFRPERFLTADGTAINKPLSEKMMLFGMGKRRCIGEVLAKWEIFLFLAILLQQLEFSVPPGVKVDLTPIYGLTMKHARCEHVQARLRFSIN
# [7] = biological target: T2, 5HT2C (Homo sapiens, UniProt P28335); assay: Compound Binding Profiles: 5HT2C; details: * = Estimated IC50
# T2 sequence (P28335 33-458): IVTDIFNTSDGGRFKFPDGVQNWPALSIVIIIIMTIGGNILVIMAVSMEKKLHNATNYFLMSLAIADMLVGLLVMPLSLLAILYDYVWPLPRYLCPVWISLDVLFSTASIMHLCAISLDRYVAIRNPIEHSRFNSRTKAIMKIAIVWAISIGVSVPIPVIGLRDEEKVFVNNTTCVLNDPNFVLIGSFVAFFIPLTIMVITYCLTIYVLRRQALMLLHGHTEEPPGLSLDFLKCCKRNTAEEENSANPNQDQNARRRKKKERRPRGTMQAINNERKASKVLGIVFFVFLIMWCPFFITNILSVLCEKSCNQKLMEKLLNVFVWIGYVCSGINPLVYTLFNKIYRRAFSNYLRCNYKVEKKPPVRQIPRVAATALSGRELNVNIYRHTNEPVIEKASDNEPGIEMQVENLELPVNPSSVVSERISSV
# [8] = Stability in HLM
# [9] = biological target: D1 (Homo sapiens, UniProt P21728); assay: Compound Binding Profiles: D1; details: read-out: D1 binding class
# [10] = Oral pharmacokinetics in rodents; details: in vivo, oral administration 5 mg/kg
# [11] = Food intake and body weight in mice, sub-chronic dosing; format: in vivo; details: sub-chronic dosing 10 and 30 mg/kg qd, i.p.
# [12] = biological target: CYP2C19 (Homo sapiens, UniProt P33261); assay: CYP inhibition CYP2C19
# [13] = biological target: CYP2C9 (Homo sapiens, UniProt P11712); assay: CYP inhibition CYP2C9
# [14] = tested on: more than 70 tested receptors; details: versus 5-HT6
# Sequence of CYP2C9 (P11712 whole entry): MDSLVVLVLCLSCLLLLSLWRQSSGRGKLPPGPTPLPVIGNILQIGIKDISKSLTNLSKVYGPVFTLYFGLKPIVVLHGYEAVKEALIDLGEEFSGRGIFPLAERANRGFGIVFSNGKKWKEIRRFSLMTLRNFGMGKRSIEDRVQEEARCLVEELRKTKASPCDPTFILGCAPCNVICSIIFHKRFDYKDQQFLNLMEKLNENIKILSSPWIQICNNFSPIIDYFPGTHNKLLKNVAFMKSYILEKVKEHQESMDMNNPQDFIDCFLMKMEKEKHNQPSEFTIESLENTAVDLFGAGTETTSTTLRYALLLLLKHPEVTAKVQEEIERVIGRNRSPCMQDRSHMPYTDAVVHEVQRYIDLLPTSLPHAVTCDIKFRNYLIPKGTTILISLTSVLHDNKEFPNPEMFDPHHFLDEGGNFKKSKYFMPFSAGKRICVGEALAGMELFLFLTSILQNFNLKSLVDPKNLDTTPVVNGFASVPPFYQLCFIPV
# Sequence of CYP2C19 (P33261 whole entry): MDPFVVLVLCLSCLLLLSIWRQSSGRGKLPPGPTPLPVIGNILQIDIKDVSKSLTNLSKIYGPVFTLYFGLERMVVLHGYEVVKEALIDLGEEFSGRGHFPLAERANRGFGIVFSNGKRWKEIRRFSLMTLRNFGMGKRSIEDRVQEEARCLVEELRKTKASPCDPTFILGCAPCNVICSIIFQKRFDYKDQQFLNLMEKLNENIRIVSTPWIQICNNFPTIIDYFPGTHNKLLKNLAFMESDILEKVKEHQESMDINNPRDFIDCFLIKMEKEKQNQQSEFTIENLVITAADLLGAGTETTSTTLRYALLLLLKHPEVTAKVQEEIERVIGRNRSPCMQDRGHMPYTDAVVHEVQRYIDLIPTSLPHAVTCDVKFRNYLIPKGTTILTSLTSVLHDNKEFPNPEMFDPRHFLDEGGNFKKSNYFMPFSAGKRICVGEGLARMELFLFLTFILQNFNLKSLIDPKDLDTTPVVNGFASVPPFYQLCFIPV
# Sequence of CYP2D6 (P10635 whole entry): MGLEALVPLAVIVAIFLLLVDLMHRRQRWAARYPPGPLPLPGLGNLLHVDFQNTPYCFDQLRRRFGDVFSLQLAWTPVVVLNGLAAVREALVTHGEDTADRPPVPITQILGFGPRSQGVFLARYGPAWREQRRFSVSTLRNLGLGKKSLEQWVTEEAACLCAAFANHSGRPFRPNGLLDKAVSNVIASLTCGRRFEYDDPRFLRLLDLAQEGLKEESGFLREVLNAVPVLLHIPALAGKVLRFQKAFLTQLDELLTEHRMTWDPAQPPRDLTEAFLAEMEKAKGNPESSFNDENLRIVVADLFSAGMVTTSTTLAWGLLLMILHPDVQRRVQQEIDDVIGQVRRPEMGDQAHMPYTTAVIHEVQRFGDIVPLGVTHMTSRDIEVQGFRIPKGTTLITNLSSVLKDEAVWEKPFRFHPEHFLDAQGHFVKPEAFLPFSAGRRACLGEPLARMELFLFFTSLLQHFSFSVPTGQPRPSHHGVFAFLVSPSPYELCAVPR
# Sequence of D1 (P21728 whole entry): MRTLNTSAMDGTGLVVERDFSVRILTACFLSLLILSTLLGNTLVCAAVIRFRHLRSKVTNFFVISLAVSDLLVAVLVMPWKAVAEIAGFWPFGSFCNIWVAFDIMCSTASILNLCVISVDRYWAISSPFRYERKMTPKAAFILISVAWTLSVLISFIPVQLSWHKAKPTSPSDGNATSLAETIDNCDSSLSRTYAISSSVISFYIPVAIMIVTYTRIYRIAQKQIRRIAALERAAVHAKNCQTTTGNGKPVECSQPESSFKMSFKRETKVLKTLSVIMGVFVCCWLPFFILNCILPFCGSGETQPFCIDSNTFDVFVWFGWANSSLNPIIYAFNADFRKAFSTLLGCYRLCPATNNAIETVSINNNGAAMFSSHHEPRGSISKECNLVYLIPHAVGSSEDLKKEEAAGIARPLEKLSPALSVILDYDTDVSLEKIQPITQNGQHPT
compound,measurement,setting,value
"COc1cc(Cl)cc(C(C)Nc2cc(N3CCNCC3)ccc2S(C)(=O)=O)c1OC.Cl (centres unmarked) [Compound A, [1-(5-Chloro-2,3-dimethoxy-phenyl)-ethyl]-(2-methanesulfonyl-5-piperazin-1-yl-phenyl)-amine hydrochloride]","Exploration time, Diff of Means Novel vs. Familiar",[1]; 1 mg/kg,14.456
same,"Memory index, Mean Diff. Vehicle versus treatment (Fisher's PLSD)",[1]; 1 mg/kg,−4.573
same,"Memory index, Mean",[1]; 1 mg/kg i.p.,61.179
same,"Exploration time, Mean","[1]; 1 mg/kg, Familiar Object",24.810
same,"Exploration time, Mean","[1]; 1 mg/kg, Novel Object",39.266
same,"Exploration time, Diff of Means Novel vs. Familiar",[1]; 3 mg/kg,23.871
same,effect on recognition index / object recognition compared to vehicle,"[1]; 3 mg/kg and 10 mg/kg, hydrochloride","significantly increased the recognition index; also recorded: significant, positive effect on object recognition"
same,"Memory index, Mean",[1]; 3 mg/kg i.p.,68.946
same,"Exploration time, Mean","[1]; 3 mg/kg, Familiar Object",17.506
same,"Exploration time, Mean","[1]; 3 mg/kg, Novel Object",41.377
same,"Exploration time, Diff of Means Novel vs. Familiar",[1]; 10 mg/kg,18.878
same,"Memory index, Mean Diff. Vehicle versus treatment (Fisher's PLSD)",[1]; 10 mg/kg,−9.784
same,"Memory index, Mean",[1]; 10 mg/kg i.p.,66.391
same,"Exploration time, Mean","[1]; 10 mg/kg, Familiar Object",16.153
same,"Exploration time, Mean","[1]; 10 mg/kg, Novel Object",35.031
same,time exploring novel object versus familiar object,"[1]; 1, 3, and 10 mg/kg",spent more time exploring novel object than the familiar object
same,"Exploration time, Diff of Means 10% DMSO vs. treatment",[1]; 1 mg/kg,0.831
same,"Exploration time, Diff of Means 10% DMSO vs. treatment",[1]; 3 mg/kg,6.473
same,"Exploration time, Diff of Means 10% DMSO vs. treatment",[1]; 10 mg/kg,7.826
same,"Exploration time, Diff of Means treatment vs. 10% DMSO",[1]; 1 mg/kg,8.282
same,"Exploration time, Diff of Means treatment vs. 10% DMSO",[1]; 3 mg/kg,10.393
same,"Exploration time, Diff of Means treatment vs. 10% DMSO",[1]; 10 mg/kg,4.047
same,bioavailability,[2]; read-out: bioavailability F,81%
same,half-life,[2]; read-out: half-life T1/2 (converted),5 h
same,IC50,[3],24 µM
same,IC50,[4],7.81 µM
same,IC50,[5],23 µM
same,IC50,[6],> 7.5 µM
same,IC50,[7],3.8 µM
same,stability (HLM),[8],> 90 min
same,Ki,[9],0.1 to 1 µM
same,bioavailability,[10],38%
same,half-life,[10],1.5 h
same,body weight,[11],significant reduction
same,food intake,[11],significant reduction
same,IC50,[12],> 7.5 µM
same,IC50,[13],> 7.5 µM
same,safety margin (selectivity) to more than 70 tested receptors,[14],> 100 fold
